Here are results for four compounds from paper PMC10659437 (bioRxiv, 2023).

The structures appear in SMILES notation.

Holding throughout (type): cell-based
Assay [1] addresses T1, human trace amine-associated receptor 1 (hTAAR1, hTA1) (Homo sapiens, UniProt Q96RJ0).
T1 sequence (Q96RJ0 1-339): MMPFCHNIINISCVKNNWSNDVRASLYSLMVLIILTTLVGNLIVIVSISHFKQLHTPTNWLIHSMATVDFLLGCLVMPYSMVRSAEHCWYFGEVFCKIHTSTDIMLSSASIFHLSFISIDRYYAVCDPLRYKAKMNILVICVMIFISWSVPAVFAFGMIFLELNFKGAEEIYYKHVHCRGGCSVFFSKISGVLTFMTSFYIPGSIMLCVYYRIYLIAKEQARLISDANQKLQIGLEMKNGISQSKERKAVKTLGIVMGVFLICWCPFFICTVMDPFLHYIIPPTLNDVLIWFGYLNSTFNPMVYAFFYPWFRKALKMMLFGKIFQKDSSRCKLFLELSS
The experiment in a line: GloSensor cAMP accumulation, hTA1-transfected HEK293T cells, with pocket mutants. For orientation: Changes in cAMP serve as a functional read-out for many G protein-coupled receptors.

Assay [2] deals with T1, human trace amine-associated receptor 1 (hTAAR1, hTA1). The assay can be described thus: cryo-EM structure of the hTA1-Gs complex.
The target is the same in assay [3]. The assay can be described thus: GloSensor cAMP accumulation, hTA1-transfected HEK293T cells.

In turn, `CN1CC2c3ccccc3Oc3ccc(Cl)cc3C2C1` (stereo not shown) [asenapine] came in with an EC50 in assay [1] of 6.56 ± 0.01 pEC50.

For `CC[C@@H](C[C@H]1COC(N)=N1)c1ccccc1` [Ro5256390], the EC50 in assay [2] was about 5 nM. The compound `Cc1c(F)cccc1[C@H]1COC(N)=N1` [Ro5263397] gave an EC50 in assay [3] of 1.48 nM. Same read-out and setting: the value for `NCCc1ccc(O)cc1` [tyramine] was 6.38 ± 0.04 pEC50.
